Measurements from patent publication US9353082B2, “Pharmaceutical compounds” (BIAL—PORTELA & CA, S.A., priority 2008, dated 2016).

Legend:
FAAH [1] = biological target: T1, FAAH (Mus musculus, UniProt O08914); experiment: In vivo FAAH inhibition after oral dosing, remaining activity in brain homogenate (BRh, central nervous tissue); set-up: species or system NMRI mice; details: brain homogenate, 3 mg/kg; for In Vivo BRh 3 mg·kg 8 h (remaining FAAH activity, % of control): 8 h after dosing, low value = strong inhibitor
T1 construct: A fragment of liver, left lung lobe and brain without cerebellum were removed; from tissue; host or cells: male NMRI mice; brain (without cerebellum) and liver homogenates
T1 sequence (O08914 1-579): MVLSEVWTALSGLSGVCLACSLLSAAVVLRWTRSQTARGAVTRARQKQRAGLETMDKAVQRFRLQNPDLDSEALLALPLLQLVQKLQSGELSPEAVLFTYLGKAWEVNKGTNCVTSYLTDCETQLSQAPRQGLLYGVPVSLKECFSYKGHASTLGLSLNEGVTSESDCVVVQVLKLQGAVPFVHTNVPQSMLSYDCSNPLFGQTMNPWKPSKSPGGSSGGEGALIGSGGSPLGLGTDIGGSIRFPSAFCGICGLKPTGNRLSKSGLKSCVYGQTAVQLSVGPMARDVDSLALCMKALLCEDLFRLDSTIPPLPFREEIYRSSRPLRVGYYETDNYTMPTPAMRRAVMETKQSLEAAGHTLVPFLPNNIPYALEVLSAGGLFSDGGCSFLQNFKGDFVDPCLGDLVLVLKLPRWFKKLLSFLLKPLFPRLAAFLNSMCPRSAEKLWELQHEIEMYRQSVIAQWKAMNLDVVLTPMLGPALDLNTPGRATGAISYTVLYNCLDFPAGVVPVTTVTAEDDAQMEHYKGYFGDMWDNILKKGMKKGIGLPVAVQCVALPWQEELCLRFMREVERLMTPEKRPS
How it was run: (§1)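 Male NMRI mice, fasted overnight, got 30 or 3 mg/kg compound orally (0.5% CMC suspension or water) and were compared with vehicle controls. Brain (no cerebellum) and liver homogenates were incubated with 2 μM AEA plus 5 nM 3H-AEA at 37 °C, 10 min for brain and 7 min for liver. Remaining FAAH activity is % of vehicle after blank subtraction.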

FAAH [2] = biological target: T2, FAAH (Rattus norvegicus, UniProt P97612); experiment: In vitro FAAH activity in rat brain membranes, 3H-AEA substrate, % of control; assay type: biochemical, Wistar rats; details: low value = strong inhibitor; for In Vitro FAAH activity, 100 nM: 100 nM test compound; for In Vitro FAAH activity, 10 uM: 10 uM test compound; for In Vitro 100 nM (FAAH activity, % of control): rat brain membranes, compound at 100 nM
T2 construct: Frozen brains (without cerebellum) from Wistar rats were used; from tissue; host or cells: Wistar rat brain (without cerebellum), washed membrane pellets
T2 sequence (P97612 1-579): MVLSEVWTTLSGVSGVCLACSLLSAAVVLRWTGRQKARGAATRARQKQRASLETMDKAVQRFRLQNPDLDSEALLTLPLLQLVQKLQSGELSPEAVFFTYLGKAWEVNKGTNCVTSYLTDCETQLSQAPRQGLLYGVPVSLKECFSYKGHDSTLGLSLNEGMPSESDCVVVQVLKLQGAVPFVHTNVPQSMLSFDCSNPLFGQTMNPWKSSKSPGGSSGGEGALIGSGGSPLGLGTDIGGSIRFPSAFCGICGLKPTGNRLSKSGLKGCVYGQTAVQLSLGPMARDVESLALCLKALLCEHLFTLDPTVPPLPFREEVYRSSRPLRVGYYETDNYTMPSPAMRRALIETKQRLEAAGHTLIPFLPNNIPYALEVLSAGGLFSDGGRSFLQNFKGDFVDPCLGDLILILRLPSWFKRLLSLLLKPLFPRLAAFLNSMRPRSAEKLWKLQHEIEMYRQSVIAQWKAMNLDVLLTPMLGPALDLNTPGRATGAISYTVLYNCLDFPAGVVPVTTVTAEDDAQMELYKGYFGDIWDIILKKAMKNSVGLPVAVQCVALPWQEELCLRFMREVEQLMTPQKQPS
How it was run: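 Wistar rat brain membranes (5 μg protein) preincubated 15 min at 37 °C with compound at 10 μM or 0.1 μM (0.1% DMSO), then 2 μM AEA including 3H-AEA with 0.1% BSA, Tris pH 7.6, 10 min. 3H-ethanolamine counted after charcoal stop; % of no-compound control after blank subtraction.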

FAAH [3] = biological target: T1, FAAH; experiment: In vivo FAAH inhibition after oral dosing, remaining activity in liver homogenate (LVh, peripheral tissue); set-up: species or system NMRI mice; details: liver homogenate, 3 mg/kg; for In Vivo LVh 3 mg·kg 8 h (remaining FAAH activity, % of control): 8 h after dosing, low value = strong inhibitor
How it was run: as §1

Row | SMILES | In Vivo BRh 3 mg/kg 8 h, remaining FAAH activity (FAAH [1]) | In Vitro FAAH activity, 100 nM (FAAH [2]) | In Vitro FAAH activity, 10 uM (FAAH [2]) | In Vivo LVh 3 mg/kg 8 h, remaining FAAH activity (FAAH [3]) | In Vivo BRh 3 mg·kg 8 h (remaining FAAH activity, % of control) (FAAH [1]) | In Vitro 100 nM (FAAH activity, % of control) (FAAH [2]) | In Vivo LVh 3 mg·kg 8 h (remaining FAAH activity, % of control) (FAAH [3])
1 | Cc1c(-c2ccccc2)ncn1C(=O)N(C)C1CCCCC1 [Compound 254, N-cyclohexyl-N,5-dimethyl-4-phenyl-1H-imidazole-1-carboxamide] | 98.3 % of control | 81 % of control | 109 % of control | 89.9 % of control | – | – | –
2 | CN(C(=O)n1cnc(-c2cccc(-c3cccc(Cl)c3)c2)c1)C1CCCCC1 [Compound 257, 4-(3′-chlorobiphenyl-3-yl)-N-cyclohexyl-N-methyl-1H-imidazole-1-carboxamide] | 60.1 % of control | 65.6 % of control | – | 12.2 % of control | – | – | –
3 | CC1(C)COCN1C(=O)n1cnc(-c2ccc(O)cc2)c1 [Compound 260, (4,4-dimethyloxazolidin-3-yl)(4-(4-hydroxyphenyl)-1H-imidazol-1-yl)methanone] | 8.1 % of control | 95.3 % of control | 37.3 % of control | 7.8 % of control | – | – | –
4 | CN(C(=O)n1cnc(-c2ccc(O)cc2)c1)C1CCCCC1 [Compound 261, N-cyclohexyl-4-(4-hydroxyphenyl)-N-methyl-1H-imidazole-1-carboxamide] | 1.2 % of control | 54.1 % of control | 0 % of control | 1.2 % of control | – | – | –
5 | Cc1c(-c2ccccc2)ncn1C(=O)N1COCC1(C)C [Compound 263, (4,4-dimethyloxazolidin-3-yl)(5-methyl-4-phenyl-1H-imidazol-1-yl)methanone] | 98.1 % of control | 92.1 % of control | – | 98.8 % of control | – | – | –
6 | Cc1c(-c2ccccc2)ncn1C(=O)N(C)Cc1ccccc1 [Compound 264, N-benzyl-N,5-dimethyl-4-phenyl-1H-imidazole-1-carboxamide] | 115 % of control | 88 % of control | – | 76.6 % of control | – | – | –
7 | CCC1CN(C(=O)n2cnc(-c3ccc(Cl)cc3)c2)C(C)(C)O1 (stereo not drawn) [Compound 267, (4-(4-chlorophenyl)-1H-imidazol-1-yl)(5-ethyl-2,2-dimethyloxazolidin-3-yl)methanone] | 79.4 % of control | 84.1 % of control | – | 83.7 % of control | – | – | –
8 | CN(C(=O)n1cnc(-c2ccc(F)c(F)c2)c1)C1CCCCC1 [Compound 272, N-cyclohexyl-4-(3,4-difluorophenyl)-N-methyl-1H-imidazole-1-carboxamide] | 19 % of control | 63.6 % of control | – | 7.1 % of control | – | – | –
9 | CN(C(=O)n1cnc(-c2ccc(F)cc2)c1)C1CCCCC1 [Compound 273, N-cyclohexyl-4-(4-fluorophenyl)-N-methyl-1H-imidazole-1-carboxamide] | – | – | – | – | 3.4 % of control | 65.1 % of control | 2.6 % of control
10 | CN(C(=O)n1cnc(-c2cccc([N+](=O)[O-])c2)c1)C1CCCCC1 [Compound 275, N-cyclohexyl-N-methyl-4-(3-nitrophenyl)-1H-imidazole-1-carboxamide] | – | – | – | – | 12.8 % of control | 43.8 % of control | 2.4 % of control
11 | CN(C(=O)n1cnc(-c2ccc(OC(F)F)cc2)c1)C1CCCCC1 [Compound 276, N-cyclohexyl-4-(4-(difluoromethoxy)phenyl)-N-methyl-1H-imidazole-1-carboxamide] | – | – | – | – | 1.4 % of control | 71.5 % of control | 2 % of control
12 | CN(C(=O)n1cnc(-c2ccccc2)c1)C1CCOCC1 [Compound 278, N-methyl-4-phenyl-N-(tetrahydro-2H-pyran-4-yl)-1H-imidazole-1-carboxamide] | – | – | – | – | 1.6 % of control | 103.5 % of control | 1.8 % of control
13 | Cc1nc(-c2ccccc2)cn1C(=O)N(C)C1CCCCC1 [Compound 279, N-cyclohexyl-N,2-dimethyl-4-phenyl-1H-imidazole-1-carboxamide] | – | – | – | – | 91.6 % of control | 87.3 % of control | 94.1 % of control
14 | CN(C(=O)n1cnc(-c2ccccc2)c1)C1CCN(Cc2ccccc2)CC1 [Compound 282, N-(1-benzylpiperidin-4-yl)-N-methyl-4-phenyl-1H-imidazole-1-carboxamide] | – | – | – | – | 0.5 % of control | 40.9 % of control | 1.6 % of control
15 | Cc1nc(-c2ccccc2)nn1C(=O)N(C)C1CCCCC1 [Compound 284, N-cyclohexyl-N,5-dimethyl-3-phenyl-1H-1,2,4-triazole-1-carboxamide] | – | – | – | – | 130.7 % of control | 146.2 % of control | 145.6 % of control
16 | Cc1nc(-c2ccccc2)nn1C(=O)N1COCC1(C)C [Compound 286, (4,4-dimethyloxazolidin-3-yl)(5-methyl-3-phenyl-1H-1,2,4-triazol-1-yl)methanone] | – | – | – | – | 104 % of control | 112.8 % of control | 93 % of control
17 | CN(C(=O)n1cnc(-c2cccc(-c3cccc(C(N)=O)c3)c2)c1)C12CC3CC(CC(C3)C1)C2 [Compound 287, 4-(3′-carbamoylbiphenyl-3-yl)-N-methyl-N-tricyclo[3.3.1.13,7]dec-1-yl-1H-imidazole-1-carboxamide-propan-2-ol (1:1)] | – | – | – | – | 105.8 % of control | 127.3 % of control | 85.7 % of control
18 | CN(C(=O)n1cnc(-c2cccnc2)c1)C12CC3CC(CC(C3)C1)C2 [Compound 289, N-methyl-4-pyridin-3-yl-N-tricyclo[3.3.1.13,7]dec-1-yl-1H-imidazole-1-carboxamide] | – | – | – | – | 113.2 % of control | 109.8 % of control | 96.1 % of control
19 | CC1(C)COCN1C(=O)n1cnc(-c2ccccc2)c1Cl [Compound 295, (5-chloro-4-phenyl-1H-imidazol-1-yl)(4,4-dimethyloxazolidin-3-yl)methanone] | – | – | – | – | 77.9 % of control | 99.2 % of control | 32.4 % of control
